Source: patent US5830863A, “Neurokinin A antagonists” (priority 1996, dated 1998)
Residues, ends and D or L forms follow the SMILES beside them.

Tests used:
[1] = target: T1, neurokinin A (NKA) receptor (NK-2) (Mesocricetus auratus, UniProt P51144); assay: displacement of I125 labeled NKA from hamster urinary bladder membranes; type: binding
T1 construct: displace I125 labeled NKA from hamster urinary bladder; from tissue; host or cells: hamster urinary bladder (membranes in A1, chopped tissue in A4)
T1 sequence (P51144 1-384): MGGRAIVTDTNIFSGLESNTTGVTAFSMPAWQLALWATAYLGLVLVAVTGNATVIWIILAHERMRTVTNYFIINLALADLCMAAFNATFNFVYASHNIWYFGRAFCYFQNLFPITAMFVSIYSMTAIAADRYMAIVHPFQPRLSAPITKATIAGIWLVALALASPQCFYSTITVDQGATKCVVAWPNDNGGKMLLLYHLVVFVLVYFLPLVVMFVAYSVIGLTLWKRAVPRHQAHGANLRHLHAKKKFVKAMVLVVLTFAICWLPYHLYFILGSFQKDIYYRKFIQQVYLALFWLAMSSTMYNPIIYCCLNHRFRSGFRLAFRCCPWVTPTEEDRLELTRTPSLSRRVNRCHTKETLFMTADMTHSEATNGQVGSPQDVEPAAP
Source text: The abscissa (x-axis) logarithmically indicates the concentration in nanomoles of agonist of antagonist of the neurokinin A (NKA) receptor. The ordinate (Y-axis) indicates the observed specific binding for each tested agonist or antagonist measured as a percentage of maximum specific binding.
Agonists tested were NKA and fragments of NKA consisting of the third to tenth (NKA(3-10)) amino acids and the fourth to tenth (NKA(4-10)) amino acids. Values are MEAN±S.E.M. of 6-12 experiments. IC50 values estimated graphically from 50% inhibition point.
Urinary bladders from several hamsters were pooled, minced, and homogenized in 50 mM TRIS-HCl (pH 7.4) containing 120 mM NaCl and 5 mM KCl at 4° C. and centrifuged at 48,000×g for 15 minutes. The pellet was resuspended for 30 minutes in 50 mM TRIS-HCl (pH 7.4) containing 10 mM EDTA and 300 mM KCl at 4° C. The suspension was centrifuged as above and the pellet was washed two times in plain 50 mM TRIS-HCl (pH 7.4) and centrifuged similarly. The tissue was then resuspended in incubation buffer and an aliquot (approximately 3-5 mg tissue) was added to each assay tube to commence the assay. The assay tubes contained incubation buffer consisting of 50 mM TRIS-HCl (pH 7.4), 0.02% BSA, 40 μg/ml bacitracin, 4 μg/ml chymostatin, 4 μg/ml leupeptin, 2 mM MnCl2, 0.1 nM ^125 iodohistidyl^1 -neurokinin A (Amersham Corp.), and concentrations of the title compounds or standards ranging from 0.03 nM to 100 μM. The assay was allowed to proceed to equilibrium for 120 min at room temperature. After this time, the contents of each tube was rapidly filtered over Whatman GF/B filters presoaked in 0.5% BSA and the filters were rapidly washed two times with ice-cold plain 50 mM TRIS-HCl (pH 7.4). Filter-bound radioactivity was quantitated in a gamma counter. Specific binding (maximum) was defined as the difference between binding in the presence and absence of 1 μM unlabeled neurokinin A. Competition of iodinated neurokinin A binding by test compounds or standards was expressed as a percentage of this maximum competition.
Values given indicate the concentration in nanomoles of antagonist to reach the IC50 of the neurokinin A (NKA) receptor. SKLKB82#3 represents a cloned NK-2 receptor cell line; the sample is prepared from the scraped cell pellet for assay as earlier described for the hamster urinary bladder preparations. NK-1 represents a substance P receptor preparation from rat salivary gland; receptors are prepared as earlier described for the hamster urinary bladder preparations. Blank spaces indicate compound has not been tested in that particular assay.

NKA receptor = target: T2, NKA receptor (Mesocricetus auratus, UniProt P51144); assay: phosphatidylinositol (PI) turnover in hamster urinary bladder; type: cell-based; settings: test compound alone; ID#3 up to 100 μM
T2 construct: displace I125 labeled NKA from hamster urinary bladder; from tissue; host or cells: hamster urinary bladder (membranes in A1, chopped tissue in A4)
T2 sequence (P51144 1-384): T1 sequence (P51144 1-384)
Description: The abscissa (x-axis) logarithmically indicates the concentration in nanomolar (nM) of agonist or antagonist of the NKA receptor. The ordinate (y-axis) indicates the observed PI turnover as a percentage of control. […] The ordinate (y-axis) indicates the observed PI turnover as a percentage of control. […] Urinary bladders from several hamsters were pooled and chopped at 350 μm with a tissue chopper. The chopped tissue was then incubated in 37° C. Krebs-Hepes buffer with fresh buffer changes every 15 minutes for 30 minutes. The tissue was then incubated in this buffer containing 100-200 μCi of ^3 H-inositol at 37° C. […] Test compound was also evaluated alone at the indicated concentrations to test for agonist activity. […] 50 μl of the bottom phase (chloroform) was withdrawn from each tube and placed in a counting vial, dried, and counted in scintillation fluid. The material on the columns was washed in order with: 1) 10 ml of water 2) 5 ml of 5 mM disodium tetraborate/60 mM sodium formate 3) 10 ml of 1M ammonium formate in 0.1M formic acid The final (third) wash was collected and one ml was mixed with 6 ml of ACS scintillant and counted. The ratio of these counts (total inositol phosphates) to the corresponding organic phase counts was then calculated for each sample. […]

Row | IC50 [1] | partial agonist activity (PI turnover) (NKA receptor) | Compound
1 | 0.157 ± 0.017 µM | 12% | CC(C)C[C@@H](CN[C@@H](CC(C)C)C(N)=O)NC(=O)CNC(=O)[C@@H](NC(=O)[C@H](Cc1ccccc1)NC(=O)[C@H](CO)NC(=O)[C@@H](N)CC(=O)O)C(C)C [MDL 28,564, H-Asp-Ser-Phe-Val-Gly-Leu.PSI.(CH2 NH)Leu-NH2] (HELM PEPTIDE1{D.S.F.V.G.[CC(C)C[C@@H](CN[C@@H](CC(C)C)C(N)=O)N[*:1]]}$$$$V2.0)
2 | 0.21 ± 0.015 µM | 5% | CC(C)C[C@@H](CN(C)[C@@H](CC(C)C)C(N)=O)NC(=O)CNC(=O)[C@@H](NC(=O)[C@H](Cc1ccccc1)NC(=O)[C@H](CO)NC(=O)[C@@H](N)CC(=O)O)C(C)C [MDL 29,916, H-Asp-Ser-Phe-Val-Gly-Leu.PSI.(CH2 NCH3)Leu-NH2] (HELM PEPTIDE1{D.S.F.V.G.[CC(C)C[C@@H](CN(C)[C@@H](CC(C)C)C(N)=O)N[*:1]]}$$$$V2.0)
